# Experimental data as given in article PMC12481569, “Novltex: A New Class of Antibiotics with Potent Activity against Multidrug-Resistant Bacterial Pathogens–Design, Synthesis, and Biological Evaluation” (Journal of Medicinal Chemistry, 2025).
# Positions of bridges follow the written chain, without caps; N, C: chain ends. Non-standard residues stand in square brackets, D forms with d. Residues, ends and D or L forms follow the SMILES beside them. dCha = N[C@H](CC1CCCCC1)C(=O)O
# Key:
# [1] = test system: Multidrug-Resistant (MDR) E. faecium; test: microbe, parasite or virus in culture
# Experimental: We further evaluated analogue 12 against multidrug-resistant (MDR) strains of S. aureus (acquired from the NARSA collection) and MDR E. faecium (acquired from International Health Management Associates, IHMA, Europe Sarl), comparing its activity to various classes of clinically used antibiotics (Table ).
# (§1) MICs were performed as previously reported 4. For MIC testing all peptides were dissolved in DMSO.
# (§2) Bacterial cultures were grown overnight on Mueller-Hinton Agar (MHA) plates and adjusted to a final inoculum of 10^5 – 10^6 CFU/mL. 100 µl of ino culum in Meuller -Hinton broth (MHB) was mixed with equal volume of peptides (dissolved in MHB) at 2x their concentration in a 96 well plate . For daptomycin MIC determination, the same protocol was followed with the addition of 50 mg/L calcium chloride to the medium. MIC values were determined in the media contain ing polysorbate 80 (0.002%, v/v) to prevent non -specific adsorption of the peptides to plastic surfaces. The final peptides concentrations ranged from 0.0625 – 32 µg/mL. The 96 well plates were then incubated at 37 °C for 24 h. All the experiments were performed in two independent duplicates and the MIC was determined as the lowest concentration in which no visible growth was observed.
# (§3) Antibiotics MIC break points ( µg/mL)
# Table. S4: Susceptibility cut-off values (MIC breakpoints) for various clinical antibiotics. […]
# MRSA ATCC 33591 [2] = test: Time-kill kinetics; type: cell-based, Staphylococcus aureus; details: 2.5 μg/mL (10× MIC), MHB with 0.002% polysorbate 80, 37 °C, two independent experiments in duplicate
# Experimental: Early-stage time-kill kinetics for analogue 12 against MRSA ATCC 33591 were performed using vancomycin as a control, following the protocol described in Section VIII, Supporting Information.
# 3 Time-kill kinetics of Novltex analogue 12 and clinical antibiotic (vancomycin) against MRSA 33591. […] Results are the mean ± SD of two independent experiments performed in duplicate.
# as §1, §2, §3
# Table. […]
# MRSA ATCC 33591 [3] = test: Resistance study on agar; type: cell-based, Staphylococcus aureus; details: 10× MIC on agar, 24 h, 37 °C
# Experimental: as §1
# Bacterial cultures were grown overnight on Mueller-Hinton Agar (MHA) plates and adjusted to a final inoculum of 10^5 – 10^6 CFU/mL. 100 µl of ino culum in Meuller -Hinton broth (MHB) was mixed with equal volume of peptides (dissolved in MHB) at 2x their concentration in a 96 well plate . […]
# MIC values were determined in the media contain ing polysorbate 80 (0.002%, v/v) to prevent non -specific adsorption of the peptides to plastic surfaces. The final peptides concentrations ranged from 0.0625 – 32 µg/mL. The 96 well plates were then incubated at 37 °C for 24 h. All the experiments were performed in two independent duplicates and the MIC was determined as the lowest concentration in which no visible growth was observed. […]
# VIII. Time dependent killing of bacteria and resistance studies by analogue 12 […]
# Resistance evaluations were conducted following previously described protocols 5. […]
# [4] = Lipid II binding, spot-on-lawn assays on S. aureus ATCC 33591; parameters: species or system Staphylococcus aureus; details: overnight 37 °C
# From the text: 6 Spot-on-lawn assays to evaluate binding of Lipid II with analogue 12 on S. aureus ATCC 33591. (A) Analogue 12 was premixed with increasing ratios of lipid II (0.5 to 4 equiv) and spotted onto a seeded lawn of S. aureus 33591. Lipid II and analogue 12 were also spotted independently. The position of the analogue 12–lipid II mixture is marked in red. (B) Daptomycin was used as a negative control. Asterisks denote the positions of analogue 12 (black), lipid II (blue), and daptomycin (green) additions.
# Analogue 12 was premixed with increasing ratios of lipid II (0.5 to 4 equiv) for 10 min prior to spotting onto agar plates seeded with a lawn of S. aureus ATCC 33591 and incubated overnight.
# XII. Lipid II binding determination of analogue 12
# Previously reported methods were used to determine the lipid II binding of analogue 126,7. The lipid II used in this study was prepared by chemical synthesis and its preparation and purification has been […]
# A: An overnight culture of S. aureus ATCC 33591 was added to LB agar (45 °C) at a final concentration of 0.1% (vol/vol) and pour-plated into 90 mm petri dishes. Binding of 12 to purified lipid II was assessed using a spot-on-lawn assay. Premixed solutions (5 µL) containing analogue 12 (8 µg) with varying concentration of lipid II were spotted onto the agar, alongside individual controls of 12 and lipid II.
# After drying, plates were incubated overnight at 37 °C. This assay was performed in duplicates.
# B: To assess the interaction between analogue 12 and lipid II, a culture of S. aureus ATCC 33591 was grown overnight in LB broth and inoculated into LB agar at a final concentration of 1% (v/v) at 45°C.
# This mixture was evenly distributed into 90mm petri dishes. Antibiotic inhibition haloes were previously determined by spotting analogue 12 and daptomycin (5 μL,8 µg/mL) onto agar plates and measuring the diameter of the halo after overnight incubation at 37 °C . The binding affinity of analogue 12 and lipid II was later examined by applying purified lipid II (300 μM, 2 μL) to the edge of the antibiotic halo. Analogue 12 and Daptomycin were applied to the inoculated agar plate at a spaced distance, once the antimicrobial solution drops had dried, lipid II was spotted on the edge of the inhibition halo. The plates were then incubated overnight at 37 °C. […]
smiles,measurement,setting,value
"CC(C)C[C@@H]1NC(=O)[C@H](C)NC(=O)[C@H](NC(=O)[C@H](CO)NC(=O)[C@@H](CCCCN)NC(=O)[C@@H](CC2CCCCC2)NC(=O)[C@@H](N)Cc2ccccc2)[C@H](C)OC(=O)[C@H](CC(C)C)NC1=O [analogue 12, Leu2Cha–Novltex] (H-F[dCha][dK]S[dT]ALL; ester 5-C)","MIC, Enterococcus faecium 1563254","[1]; MDR clinical isolate 1563254, MHB, 0.002% polysorbate 80, 37 °C, 24 h, daptomycin with 50 mg/L calcium chloride",0.25 µg/mL
same,"MIC, Enterococcus faecium 1581582","[1]; MDR clinical isolate 1581582, MHB, 0.002% polysorbate 80, 37 °C, 24 h, daptomycin with 50 mg/L calcium chloride",0.5 µg/mL
same,"MIC, Enterococcus faecium 1766686","[1]; MDR clinical isolate 1766686, MHB, 0.002% polysorbate 80, 37 °C, 24 h, daptomycin with 50 mg/L calcium chloride",0.125 µg/mL
same,MIC range against MDR E. faecium strains,[1]; range over the three clinical isolates,0.125 to 0.5 µg/mL
same,time to significant bacterial killing,MRSA ATCC 33591 [2],≤ 6 h
same,emergence of resistant mutants,MRSA ATCC 33591 [3],No resistant MRSA ATCC 33591 mutants emerged
same,"zone of inhibition, spot-on-lawn","[4]; absence of lipid II, 8 µg spotted, duplicates",clear and substantial zone of inhibition
same,"zone of inhibition, spot-on-lawn, premixed with lipid II","[4]; lipid II 1:1 ratio, premixed 10 min",antimicrobial activity was completely abolished
same,halo distortion on addition of lipid II,"[4]; lipid II (300 μM, 2 μL) at the edge of the antibiotic halo, duplicates",formed a noncircular spot
same,"zone of inhibition, spot-on-lawn, premixed with lipid II","[4]; lipid II ratio 0.5, premixed 10 min",only a faint zone remained
